Results from EP4733299A1, “SULFUR-CONTAINING FUSED RING COMPOUND, PHARMACEUTICAL COMPOSITION CONTAINING SAME, AND PREPARATION METHOD THEREFOR AND USE THEREOF” (Shenzhen Braegen Pharmaceutical Co., Ltd., priority 2023, dated 2024).

Target: T1, a-Syn aggregates (Homo sapiens, UniProt P37840, A53T)
T1 construct: tissue The Jackson Laboratory 017682; host or cells: brain sections of rotenone-treated transgenic mice
Assay: Binding specificity on brain slices of rotenone-treated SNCA transgenic mice
Settings: for capture of a-Syn aggregates: brain slices, rotenone-treated SNCA Tg mice, Fig. 2
Method: To further explore whether the positive compounds selectively bind to Lewy bodies, brain slices from mice were used to test the binding specificity assays.
Staining with a-Synuclein protein coding gene (SNCA) transgenic mice (the Jackson Laboratory; stock numbers: 017682) were treated with rotenone (Oral gavage of rotenone under the following protocol: Mice were treated with 0.1 mL/25 g of vehicle containing 1% methylcellulose (Sigma, Catalog No.: M0512) and 1.25% chloroform (Sigma, Catalog No.: 2432) or a solution containing 0.625 mg/mL of rotenone (ULTRA Scientific, Catalog No.: PST-890) with 1% methylcellulose and 1.25% chloroform. We prepared rotenone solution by dissolving rotenone in chloroform and then diluting into 1% methylcellulose solution while mixing vigorously. Rotenone or vehicle control was orally administered with a 1.2 x 60 mm gavage (Unimed, Switzerland) once a day for 5 days/week, consecutively for 3 months.), which contains abundant LB-like inclusions. Furthermore, brain slices from NFT abundant Tau P301S mice and Aβ-enriched 5 x FAD mice were also used separately.
The brain slices were fixed and incubated for 12 h at 4 °C with primary antibodies followed by incubation with Alexa Fluor 568-, Alexa Fluor 488-, or Alexa Fluor 647-conjugated secondary antibodies (Invitrogen) for 3 h at room temperature. Then stained with ThS (Sigma, Catalog No.: T1892) or candidate compounds at room temperature, 4',6-diamidino-2-phenylindole (DAPI, 1 µg/ml) (Sigma-Aldrich) was used for the nuclear staining. The slides were imaged with Olympus FluoView FV1000 confocal laser scanning microscope using Olympus FluoView software to acquire data.

Compound	capture of a-Syn aggregates	co-localization with aggregates in the brain sections (positive control, mouse brain sections)
COc1cc(/C=C/c2nc3cc(C)c(N(C)CCOCCF)cc3s2)cc(Br)c1O [Compound S, (E)-2-bromo-4-(2-(6-((2-(2-fluoroethoxy)ethyl)(methyl)amino)-5-methylbenzo[d]thiazol-2-yl)vinyl)-6-methoxyphenol]	sensitively captured a-Syn aggregates	–
thioflavin-S [ThS, reference compound]	–	co-localized with all of these aggregates
COc1cc(/C=C/c2nc3cc(C)c(N(C)CCOCCF)cc3s2)ccc1O [Compound A, (E)-4-(2-(6-((2-(2-fluoroethoxy)ethyl)(methyl)amino)-5-methylbenzo[d]thiazol-2-yl)vinyl)-2-methoxyphenol]	sensitively captured a-Syn aggregates	–
